Laboratory results reported in patent US7678918B2, “Intermediates for imidazonaphthyridines” (3M Innovative Properties Company, priority 1997, dated 2010).

How the values were obtained:
[1] = test system: TNF; assay: Cytokine Induction in Human Cells: tumor necrosis factor (TNF) secreted by PBMCs, ELISA; assay type: cell-based; conditions: 18 to 24 hours
Source text: (§1) An in vitro human blood cell system was used to assess cytokine induction by compounds of the invention. Activity is based on the measurement of interferon and tumor necrosis factor (ℑ) (IFN and TNF, respectively) secreted into culture media as described by Testerman et. al. In “Cytokine Induction by the Immunomodulators Imiquimod and S-27609”, Journal of Leukocyte Biology, 58, 365-372 (September, 1995). Blood Cell Preparation for Culture
(§2) Whole blood is collected by venipuncture into EDTA vacutainer tubes from healthy human donors. Peripheral blood mononuclear cells (PBMCs) are separated from whole blood by Histopaque®-1077 (Sigma Chemicals, St. Louis, Mo.) density gradient centrifugation. The PBMCs are suspended at 1.5-2×10^6 cells/mL in RPMI 1640 medium containing 10% fetal bovine serum, 2 mM L-glutamine and 1% penicillin/streptomycin solution (RPMI complete). 1 mL portions of PBMC suspension are added to 24 well flat bottom sterile tissue culture plates.
(§3) The compounds are solubilized in dimethyl sulfoxide (DMSO). The DMSO concentration should not exceed a final concentration of 1% for addition to the culture wells. The compounds are generally tested in a concentration range of from 0.1 to 100 μM.
(§4) The solution of test compound is added to the wells containing 1 mL of PBMCs in media. The plates are covered with plastic lids, mixed gently and then incubated for 18 to 24 hours at 37° C. with a 5% carbon dioxide atmosphere.
(§5) Following incubation the plates are centrifuged for 5-10 minutes at 1000 rpm (˜200×g) at 4° C. The cell culture supernatant is removed with a sterile polypropylene pipet and transferred to a 2 mL sterile cryotube. Samples are maintained at −70° C. until analysis.
Tumor necrosis factor (ℑ) (TNF) concentration is determined using an ELISA kit available from Genzyme, Cambridge, Mass. The results are expressed as pg/mL.

[2] = test system: IFN; assay: Cytokine Induction in Human Cells: interferon (IFN) secreted by PBMCs, A549/encephalomyocarditis bioassay; assay type: cell-based; conditions: 18 to 24 hours
Source text: as §1, §2, §3, §4, §5
Interferon is determined by bioassay using A549 human lung carcinoma cells challenged with encephalomyocarditis. The details of the bioassay method have been described by G. L. Brennan and L. H. Kronenberg in “Automated Bioassay of Interferons in Micro-test Plates”, Biotechniques, June/July 78, 1983, incorporated herein by reference. Briefly stated the method is as follows: A549 cells are incubated with samples and standard interferon dilutions at 37° C. for 24 hours. The incubated cells are then infected with an inoculum of encephalomyocarditis virus. The infected cells are incubated for an additional 24 hours at 37° C. before quantifying for viral cytopathic effect. The viral cytopathic effect is quantified by staining followed by visual scoring of the plates. Results are expressed as alpha reference units/mL based on the value obtained for NIH Human Leukocyte IFN standard.
Also: call rule not given here.

| SMILES | TNF induction ([1]; Dose Concentration 1.0 μM) | TNF induction ([1]; Dose Concentration 10.0 μM) | TNF induction ([1]; Dose Concentration 100.0 μM) | IFN induction ([2]; Dose Concentration 1.0 μM) | IFN induction ([2]; Dose Concentration 10.0 μM) | IFN induction ([2]; Dose Concentration 100.0 μM) | TNF induction ([1]; Dose Concentration 0.1 μM) | IFN induction ([2]; Dose Concentration 0.1 μM) |
| --- | --- | --- | --- | --- | --- | --- | --- | --- |
| CCCCc1nc2c(N)nc3cccnc3c2n1CCNC(=O)CC1CCCC1 [Example 124] | − | + | + | + | + | + |  |  |
| CCCCc1nc2c(N)nc3cccnc3c2n1CCNC(=O)c1cc(C(F)(F)F)cc(C(F)(F)F)c1 [Example 125] | − | + | + | + | + | + |  |  |
| CCCCc1nc2c(N)nc3cccnc3c2n1CCNC(=O)c1c(OC)cccc1OC [Example 128] | − | ± | + | ± | + | + |  |  |
| CCCCc1nc2c(N)nc3cccnc3c2n1CCNC(=O)c1ccc(F)cc1 [Example 129] | + | + | + | + | + | + |  |  |
| CCCCc1nc2c(N)nc3cccnc3c2n1CCNC(=O)CC(C)(C)C [Example 135] | − | + | + | − | + | + |  |  |
| CCCCc1nc2c(N)nc3cccnc3c2n1CCNC(=O)C1CC1 [Example 136] | − | + | + | + | + | + |  |  |
| CCCCc1nc2c(N)nc3cccnc3c2n1CCNC(=O)C1CCCC1 [Example 137] | − | ± | + | + | + | + |  |  |
| CCCCc1nc2c(N)nc3cccnc3c2n1CCNC(=O)CCC1CCCC1 [Example 138] | + | + | + | + | + | + |  |  |
| CCCCc1nc2c(N)nc3cccnc3c2n1CCNC(=O)c1ccc(C#N)cc1 [Example 139] | − | + | + | + | + | + |  |  |
| CCCCc1nc2c(N)nc3cccnc3c2n1CCNC(=O)c1c(C)cc(C)cc1C [Example 143] | − | ± | − | − | + | + |  |  |
| CCCCc1nc2c(N)nc3cccnc3c2n1CCNC(=O)c1ccccc1OC [Example 144] | + | + | + | + | + | + | − | + |
| CCCCc1nc2c(N)nc3cccnc3c2n1CCNC(=O)CCCCC(=O)OC [Example 145] | + | + | + | − | + | + | − | − |
| CCCCc1nc2c(N)nc3cccnc3c2n1CCNC(=O)c1ccc([N+](=O)[O-])o1 [Example 146] | + | + | + | + | + | − | + | + |
| CCCCc1nc2c(N)nc3cccnc3c2n1CCNC(=O)c1cccnc1Cl [Example 147] | − | + | + | + | + | + | − | − |
| CCCCCCCOc1ccc(C(=O)NCCn2c(CCCC)nc3c(N)nc4cccnc4c32)cc1 [Example 149] | − | − | − | − | − | − | − | − |
| CCCCc1nc2c(N)nc3cccnc3c2n1CCNC(=O)c1ccc(C(=O)OC)cc1 [Example 150] | − | + | + | − | + | + | − | − |
| CCCCc1nc2c(N)nc3cccnc3c2n1CCNC(=O)Cc1ccc(OC)cc1 [Example 152] | − | + | + | − | + | + | − | − |
| CCCCc1nc2c(N)nc3cccnc3c2n1CCCCNC(=O)c1cccc(Br)c1 [Example 153] | + | + | − | + | + | − | − | − |
| CCCCc1nc2c(N)nc3cccnc3c2n1CCCCNC(=O)C1(c2ccc(Cl)cc2)CCCC1 [Example 155] | − | + | + | + | + | + | − | − |
| CCCCc1nc2c(N)nc3cccnc3c2n1CCCCNC(=O)COCc1ccccc1 [Example 157] | − | + | − | + | + | − | − | + |
| CCCCc1nc2c(N)nc3cccnc3c2n1CCCCNC(=O)CCCCCCCCC(=O)OC [Example 158] | − | + | − | + | + | + | − | − |
